Data from patent US11306075B2, “Benzofuran, benzothiophene, and indole analogs that inhibit the formation of tau oligomers and their method of use” (OLIGOMERIX INC., priority 2016, dated 2022).
Counter-ions that a name gives are not always drawn.

molecular target: recombinant human tau 4R2N (Homo sapiens (Human), UniProt P10636); assay: Confirmatory Assay (CONFA), SDS-PAGE quantification of tau monomer and oligomers; type: biochemical; conditions: tau target 300 nM, Tris-HCl pH 7.4, room temperature 3 hours, compound 0.098 uM-50 uM
Sequence (P10636 other isoform, or with tags, fused parts or gaps): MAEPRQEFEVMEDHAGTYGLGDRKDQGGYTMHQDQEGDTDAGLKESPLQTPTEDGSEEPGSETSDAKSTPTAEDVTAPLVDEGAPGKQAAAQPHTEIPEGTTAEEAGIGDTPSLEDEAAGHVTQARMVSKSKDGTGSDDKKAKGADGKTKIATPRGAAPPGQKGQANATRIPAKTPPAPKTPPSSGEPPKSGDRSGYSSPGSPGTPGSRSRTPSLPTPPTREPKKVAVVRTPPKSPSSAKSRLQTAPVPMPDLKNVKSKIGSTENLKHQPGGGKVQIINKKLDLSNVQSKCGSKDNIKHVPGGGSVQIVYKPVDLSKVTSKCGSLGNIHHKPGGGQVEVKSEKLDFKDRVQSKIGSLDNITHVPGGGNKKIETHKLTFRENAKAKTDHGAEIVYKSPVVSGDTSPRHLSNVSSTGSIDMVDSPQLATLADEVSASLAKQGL
Method: Bacterial recombinant human tau 4R2N (the largest isoform of tau in the central nervous system, 441 amino acids in length, Seq ID 1) constructs with either 6×-His or StrepII N-terminal epitope tags were purified from bacterial lysate using denaturing conditions to prepare tau in its monomeric form.
CONFA Assay: Confirmatory Assay (CONFA) used as a secondary screen for confirming the mechanism of action of compounds identified as hits using the ALA assay. The assay is performed using a similar procedure as ALA except that it utilizes SDS-PAGE for visualization and quantification of tau monomer and aggregated species (dimer, trimer, tetramer, pentamer, etc.). Only a single construct of tau without epitope tags is necessary, but the assay can use the same target prepared for the ALA assay also.
For the CONFA assay, Tau target (300 nM) was prepared in buffer (Tris-HCl pH 7.4) and was incubated at room temperature for 3 hours with vehicle control (DMSO) and a dose range of a compound of the disclosure (0.098 uM-50 uM). Samples were mixed with an equal volume of 2×SDS sample buffer (4% SDS, 20% glycerol, 0.004% bromphenol blue, 125 mM Tris HCl, pH 7.0) to resolve tau monomer and disulfide-finked oligomers on 4-20% gradient polyacrylamide gels (Biorad) along with positive control (non-oligomerized tau target). The gels were stained with Oriole Fluorescent Gel Stain (BioRad) and imaged using the FluorChem R system (Protein Simple). AlphaView software (Protein Simple) was used for quantification of tau monomer and oligomers.

SMILES	IC50
CC(=O)CCc1oc2cc(-c3cccnc3)ccc2c1-c1ccc(F)cc1 [Ex. 31, 4-(3-(4-fluorophenyl)-6-(pyridin-3-yl)benzofuran-2-yl)butan-2-one HCl Salt]	9.28 µM
CC(=O)CCc1oc2ccc(-c3cccnc3)cc2c1-c1ccc(C)o1 [Ex. 3, 4-(3-(5-Methylfuran-2-yl)-5-(pyridin-3-yl)benzofuran-2-yl)butan-2-one]	37.1 µM
CC(=O)CCc1oc2cc(-c3ccncc3)ccc2c1-c1ccc(C)o1 [Ex. 22, 4-(3-(5-Methylfuran-2-yl)-6-(pyridin-4-yl)benzofuran-2-yl)butan-2-one]	7.57 µM
CC(=O)CCc1oc2ccc(-c3cccs3)cc2c1-c1ccc(C)o1 [Ex. 8, 4-(3-(5-Methylfuran-2-yl)-5-(thiophen-2-yl)benzofuran-2-yl)butan-2-one]	5.57 µM
CC(=O)CCc1oc2cc(-c3cncnc3)ccc2c1-c1ccc(C)o1 [Ex. 30, 4-(3-(5-methylfuran-2-yl)-6-(pyrimidin-5-yl)benzofuran-2-yl)butan-2-one, di HCl Salt]	20.4 µM
CC(=O)CCc1oc2cc(-c3cccnc3)ccc2c1-c1ccc(C)o1 [Ex. 24, 4-(3-(5-methylfuran-2-yl)-6-(pyridin-3-yl)benzofuran-2-yl)butan-2-one]	11.8 µM
CC(=O)CCc1oc2ccc(-c3cccc(O)c3)cc2c1-c1ccc(C)o1 [Ex. 4, 4-(5-(3-Hydroxyphenyl)-3-(5-methylfuran-2-yl)benzofuran-2-yl)butan-2-one]	24.1 µM
COc1ccc(-c2ccc3c(-c4ccc(C)o4)c(CCC(C)=O)oc3c2)cn1 [Ex. 28, 4-(6-(6-Methoxypyridin-3-yl)-3-(5-methylfuran-2-yl)benzofuran-2-yl)butan-2-one]	17.5 µM
CC(=O)CCc1oc2ccc(-c3cncnc3)cc2c1-c1ccc(C)cc1 [Ex. 29, 4-(5-(pyrimidin-5-yl)-3-p-tolylbenzofuran-2-yl)butan-2-one, di HCl Salt]	7.38 µM
COc1ccc(-c2ccc3oc(CCC(C)=O)c(-c4ccc(C)o4)c3c2)cn1 [Ex. 2, 4-(5-(6-Methoxypyridin-3-yl)-3-(5-methylfuran-2-yl)benzofuran-2-yl)butan-2-one]	4.27 µM
Cc1ccc(-c2c(CCC(=O)O)oc3ccc(Br)cc23)o1 [Ex. 12, 3-[5-Bromo-3-(5-methyl-furan-2-yl)-benzofuran-2-yl]-propionic Acid]	22.5 µM
COc1cc(-c2ccc3c(-c4ccc(C)o4)c(CCC(C)=O)oc3c2)ccn1 [Ex. 23, 4-(6-(2-Methoxypyridin-4-yl)-3-(5-methylfuran-2-yl)benzofuran-2-yl)butan-2-one]	7.18 µM
Cc1ccc(C(C)(O)CCc2oc3ccc(Br)cc3c2-c2ccc(C)o2)cc1 (stereo not shown) [Ex. 16, 4-(5-Bromo-3-(5-methylfuran-2-yl)benzofuran-2-yl)-2-p-tolylbutane-2-ol]	1.31 µM
COc1cccc(-c2ccc3oc(CCC(C)=O)c(-c4ccc(C)o4)c3c2)c1 [Ex. 5, 4-(5-(3-Methoxyphenyl)-3-(5-methylfuran-2-yl)benzofuran-2-yl)butan-2-one]	0.364 µM
Cc1ccc(-c2c(CCC(=O)N3CCC(O)CC3)oc3ccc(Br)cc23)o1 [Ex. 13, 3-[5-Bromo-3-(5-methyl-furan-2-yl)-benzofuran-2-yl]-1-(4-hydroxy-piperidin-1-yl)-propan-1-one]	3.23 µM
Cc1ccc(-c2c(CCC(C)(C)O)oc3ccc(Br)cc23)o1 [Ex. 15, 4-(5-Bromo-3-(5-methylfuran-2-yl)benzofuran-2-yl)-2-methylbutan-2-ol]	1.32 µM
